In patent publication EP4660182A1, “NAV1.7- AND/OR NAV1.8-INHIBITING ARYL PYRIDINE COMPOUNDS, PROCESSES FOR THE PREPARATION THEREOF, COMPOSITIONS, USES, METHODS FOR TREATMENT USING SAME, AND KITS” (Eurofarma Laboratórios S.A., priority 2023, dated 2024):

Assays:
[1] = target: T1, human sodium channels Nav 1.8 (Homo sapiens, UniProt Q9Y5Y9); assay: Automated whole-cell voltage-clamp (ScreenPatch 384P) sodium current block, Nav 1.8; type: cell-based; conditions: CHO cells stably expressing human Nav 1.8; inactivation step -40 mV 8 s, test step 10 mV (TP1A); eight concentrations; exposure at least five minutes; room temperature; read-out: Nav1.8 IC50
T1 construct: expressed in transfected cells
Method: (§1) Biological assays were performed on Chinese hamster ovary (CHO) cells that express human sodium channels Nav 1.8 or Nav 1.7 in a stable manner.
(§2) The experimental protocol voltage-clamp using the whole cell configuration was established on the automated ScreenPatch® 384P platform (SP384PE, Nanion Technologies, Livingston, NJ) and the results were recorded with a Nanion 384-well Patch Clamp chip (NPC) (Nanion Technologies, Livingston, NJ).
(§3) Formula I compounds were diluted in eight concentrations in the extracellular solution composed of saline solution, buffered with HEPES (mM): NaCl, 137; KCl, 4; CaCl2, 3,8; MgCl2, 1; HEPES, 10; Glucose, 10; pH 7.4. The […], 50; CsF, 90; MgCl2, 5; EGTA, 5; HEPES, 10; pH 7.2. The duration of exposure of each compound with cells expressing Nav 1.7 or Nav 1.8 was at least five minutes and the assays were performed at room temperature.
(§4) The measurements of the sodium currents of Nav 1.8 and Nav 1.7 were obtained using the voltage protocol described below.
(§5) A holding voltage of -100 mV was established followed by an inactivation voltage step at -40 mV for 8 seconds, followed by a step of -100 mV for 20 ms, followed by a 20 ms step for 10 mV for Nav 1.8 or 0 mV for Nav 1.7 (TP1A) before returning to the holding voltage of -100 mV.
(§6) The protocol was repeated at a frequency of 0.05 Hz and the amplitude of the current was quantified throughout the recording of the TP1A phase. The variation in the amplitude of the peak current was evaluated according to the formula described below, after exposing the cells expressing the channels to each concentration of the different compounds: % Block = (1−(ITP1A,molecule/ITP1A,basal)×100%, [formula] wherein ITP1A,basal and ITP1A,molecule represent the peaks of sodium current input into TP1A before exposure to the compound and in the presence of the compound, respectively.
(§7) Data were obtained by nonlinear regression (nonlinear least squares) with XLfit for Excel (Microsoft, Redmond, WA).
(§8) The compounds were tested in at least one assay to obtain the value of CI50. For compounds that were tested in two or more assays, the results are described as the means of the CI50 values.

[2] = target: T2, human sodium channels Nav 1.7 (Homo sapiens, UniProt Q15858); assay: Automated whole-cell voltage-clamp (ScreenPatch 384P) sodium current block, Nav 1.7; type: cell-based; conditions: CHO cells stably expressing human Nav 1.7; inactivation step -40 mV 8 s, test step 0 mV (TP1A); eight concentrations; exposure at least five minutes; room temperature; read-out: Nav1.7 IC50
T2 construct: expressed in transfected cells
Method: as §1, §2, §3, §4, §5, §6, §7, §8

T1 sequence (Q9Y5Y9 whole entry): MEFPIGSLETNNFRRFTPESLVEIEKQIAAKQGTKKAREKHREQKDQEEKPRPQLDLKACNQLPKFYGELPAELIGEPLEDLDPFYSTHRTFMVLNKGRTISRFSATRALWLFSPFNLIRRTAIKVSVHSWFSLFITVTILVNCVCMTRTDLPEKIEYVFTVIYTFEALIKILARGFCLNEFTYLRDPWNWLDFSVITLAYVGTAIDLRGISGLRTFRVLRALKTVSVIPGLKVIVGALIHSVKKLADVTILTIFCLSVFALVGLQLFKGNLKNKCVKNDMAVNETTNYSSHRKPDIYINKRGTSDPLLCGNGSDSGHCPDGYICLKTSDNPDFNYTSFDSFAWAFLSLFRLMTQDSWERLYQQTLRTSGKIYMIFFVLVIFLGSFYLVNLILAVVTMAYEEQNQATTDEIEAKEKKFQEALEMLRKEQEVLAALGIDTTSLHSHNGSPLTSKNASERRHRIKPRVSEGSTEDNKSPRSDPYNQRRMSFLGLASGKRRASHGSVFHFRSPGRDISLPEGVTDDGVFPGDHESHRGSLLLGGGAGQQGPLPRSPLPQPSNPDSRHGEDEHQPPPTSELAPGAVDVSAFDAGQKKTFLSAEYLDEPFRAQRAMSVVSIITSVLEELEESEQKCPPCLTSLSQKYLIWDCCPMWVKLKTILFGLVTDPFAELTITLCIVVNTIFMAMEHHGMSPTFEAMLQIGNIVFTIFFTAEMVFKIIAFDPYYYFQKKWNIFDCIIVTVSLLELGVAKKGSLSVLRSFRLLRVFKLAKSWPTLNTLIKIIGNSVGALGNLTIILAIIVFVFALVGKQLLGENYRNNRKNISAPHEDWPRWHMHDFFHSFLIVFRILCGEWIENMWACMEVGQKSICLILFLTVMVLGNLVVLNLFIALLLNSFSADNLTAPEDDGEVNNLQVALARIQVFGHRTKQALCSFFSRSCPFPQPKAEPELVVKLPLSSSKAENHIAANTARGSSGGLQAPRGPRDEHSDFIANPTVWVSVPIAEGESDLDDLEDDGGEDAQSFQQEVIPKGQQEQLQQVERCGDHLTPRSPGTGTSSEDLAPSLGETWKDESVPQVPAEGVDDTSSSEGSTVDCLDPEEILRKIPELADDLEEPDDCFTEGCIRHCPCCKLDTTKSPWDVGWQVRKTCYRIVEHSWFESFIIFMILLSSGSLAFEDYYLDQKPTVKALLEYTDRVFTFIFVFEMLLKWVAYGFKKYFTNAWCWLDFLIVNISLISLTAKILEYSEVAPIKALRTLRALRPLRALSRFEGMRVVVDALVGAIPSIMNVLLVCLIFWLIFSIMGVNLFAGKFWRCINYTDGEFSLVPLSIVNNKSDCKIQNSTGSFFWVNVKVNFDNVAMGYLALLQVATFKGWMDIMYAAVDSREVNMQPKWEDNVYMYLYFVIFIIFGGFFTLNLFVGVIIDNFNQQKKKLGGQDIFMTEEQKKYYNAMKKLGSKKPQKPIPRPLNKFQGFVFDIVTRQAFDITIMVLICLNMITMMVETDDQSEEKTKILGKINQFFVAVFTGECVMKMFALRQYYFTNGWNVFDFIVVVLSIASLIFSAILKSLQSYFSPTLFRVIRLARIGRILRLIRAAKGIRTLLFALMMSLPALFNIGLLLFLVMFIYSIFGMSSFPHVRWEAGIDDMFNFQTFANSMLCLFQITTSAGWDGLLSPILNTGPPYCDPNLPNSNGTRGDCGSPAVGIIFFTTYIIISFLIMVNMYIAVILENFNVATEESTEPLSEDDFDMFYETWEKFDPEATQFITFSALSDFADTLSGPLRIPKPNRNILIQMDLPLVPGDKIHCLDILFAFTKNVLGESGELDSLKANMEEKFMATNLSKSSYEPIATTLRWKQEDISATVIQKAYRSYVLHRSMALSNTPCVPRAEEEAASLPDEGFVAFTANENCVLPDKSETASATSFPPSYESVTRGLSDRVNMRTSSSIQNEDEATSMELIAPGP
T2 sequence (Q15858 whole entry): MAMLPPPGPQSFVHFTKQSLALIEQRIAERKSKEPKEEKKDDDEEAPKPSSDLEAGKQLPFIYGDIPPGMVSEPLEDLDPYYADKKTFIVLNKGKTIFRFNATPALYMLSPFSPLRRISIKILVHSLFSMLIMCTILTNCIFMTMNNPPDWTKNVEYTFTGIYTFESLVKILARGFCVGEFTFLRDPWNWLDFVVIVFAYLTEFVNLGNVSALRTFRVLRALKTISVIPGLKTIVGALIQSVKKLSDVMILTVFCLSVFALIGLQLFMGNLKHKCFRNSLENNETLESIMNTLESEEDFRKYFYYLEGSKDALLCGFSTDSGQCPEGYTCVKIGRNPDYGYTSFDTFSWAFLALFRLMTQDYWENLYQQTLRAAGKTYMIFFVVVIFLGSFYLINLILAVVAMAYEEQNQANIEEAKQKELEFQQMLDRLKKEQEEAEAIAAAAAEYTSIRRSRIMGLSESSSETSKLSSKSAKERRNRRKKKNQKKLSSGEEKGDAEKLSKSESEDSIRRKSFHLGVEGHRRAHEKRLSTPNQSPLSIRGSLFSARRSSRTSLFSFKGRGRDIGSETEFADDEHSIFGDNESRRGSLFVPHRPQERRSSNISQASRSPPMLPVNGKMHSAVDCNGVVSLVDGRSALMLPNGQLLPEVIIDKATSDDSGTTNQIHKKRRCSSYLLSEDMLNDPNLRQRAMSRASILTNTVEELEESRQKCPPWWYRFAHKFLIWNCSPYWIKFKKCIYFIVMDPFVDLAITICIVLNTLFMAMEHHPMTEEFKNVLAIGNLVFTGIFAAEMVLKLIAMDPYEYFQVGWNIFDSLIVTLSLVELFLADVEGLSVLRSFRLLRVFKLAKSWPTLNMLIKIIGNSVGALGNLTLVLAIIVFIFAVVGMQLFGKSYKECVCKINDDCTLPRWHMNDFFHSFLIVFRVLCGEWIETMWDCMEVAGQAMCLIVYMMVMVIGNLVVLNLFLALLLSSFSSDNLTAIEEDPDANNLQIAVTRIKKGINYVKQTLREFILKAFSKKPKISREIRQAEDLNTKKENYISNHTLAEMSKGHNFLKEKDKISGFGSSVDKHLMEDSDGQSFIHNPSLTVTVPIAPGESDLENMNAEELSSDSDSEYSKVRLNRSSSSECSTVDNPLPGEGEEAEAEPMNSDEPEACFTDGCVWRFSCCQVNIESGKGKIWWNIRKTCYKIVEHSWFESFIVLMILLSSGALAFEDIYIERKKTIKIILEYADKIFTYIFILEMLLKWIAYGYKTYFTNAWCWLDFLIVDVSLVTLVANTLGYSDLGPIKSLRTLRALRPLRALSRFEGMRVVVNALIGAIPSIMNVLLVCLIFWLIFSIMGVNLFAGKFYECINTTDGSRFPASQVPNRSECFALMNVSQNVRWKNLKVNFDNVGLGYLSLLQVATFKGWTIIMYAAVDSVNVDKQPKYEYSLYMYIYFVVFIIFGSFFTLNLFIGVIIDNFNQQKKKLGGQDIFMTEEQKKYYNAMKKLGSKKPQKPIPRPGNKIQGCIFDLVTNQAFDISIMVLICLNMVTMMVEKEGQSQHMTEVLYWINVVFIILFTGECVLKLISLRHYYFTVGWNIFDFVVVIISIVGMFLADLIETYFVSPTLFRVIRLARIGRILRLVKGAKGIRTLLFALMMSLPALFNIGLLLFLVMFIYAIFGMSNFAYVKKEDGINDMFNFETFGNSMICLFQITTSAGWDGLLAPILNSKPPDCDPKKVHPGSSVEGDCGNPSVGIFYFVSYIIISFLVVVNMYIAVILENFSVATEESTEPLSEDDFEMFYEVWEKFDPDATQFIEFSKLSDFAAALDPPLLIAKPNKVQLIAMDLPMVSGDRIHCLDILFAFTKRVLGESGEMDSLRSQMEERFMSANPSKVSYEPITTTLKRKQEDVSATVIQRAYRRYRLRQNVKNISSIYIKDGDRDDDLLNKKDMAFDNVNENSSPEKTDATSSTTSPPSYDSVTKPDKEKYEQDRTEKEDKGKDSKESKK

| IC50 [1] [nM] | IC50 [2] [nM] | Structure (SMILES) |
| --- | --- | --- |
| > 1000 | > 1000 | COc1ccc(F)c(/C=N/NC(=O)c2cncc(-c3cnc4nc[nH]c4c3)n2)c1 [Compound 166, (E)-N'-(2-fluoro-5-methoxybenzylidene)-6-(1H-imidazo[4,5-b]pyridine-6-yl) pyrazine-2-carbohydrazide] |
| > 1000 | > 1000 | COc1cncc(/C=N/NC(=O)c2cncc(-c3ccc(OC(F)F)nc3)n2)c1 [Compound 107, (E)-6-(6-(difluoromethoxy)pyridine-3-yl)-N'-((5-methoxypyridine-3-yl)methylene)pyrazine-2-carbohydrazide] |
| < 500 | > 1000 | [2H]C([2H])([2H])C([2H])([2H])Oc1ccc(-c2cncc(C(=O)N/N=C/c3cc(OC)cnc3F)n2)cn1 [Compound 170, (E)-6-(6-(ethoxy-d5)pyridine-3-yl)-N'-((2-fluoro-5-methoxypyridine-3-yl)methylene) pyrazine-2-carbohydrazide] |
| > 1000 | > 1000 | COc1ccc(F)c(/C=N/NC(=O)c2cncc(-c3ccc(C#N)nc3)n2)c1 [Compound 130, (E)-6-(6-cyanopyridine-3-yl)-N'-(2-fluoro-5-methoxybenzylidene)pyrazine-2-carbohydrazide] |
| > 1000 | > 1000 | COc1ccc(F)c(/C=N/NC(=O)c2cncc(-c3ccc(OCCN)nc3)n2)c1 [Compound 135, (E)-6-(6-(2-aminoethoxy)pyridine-3-yl)-N'-(2-fluoro-5-methoxybenzylidene) pyrazine-2-carbohydrazide] |
| < 500 | > 1000 | [2H]C([2H])([2H])COc1ccc(-c2cncc(C(=O)N/N=C/c3cc(OC([2H])([2H])[2H])cnc3F)n2)cn1 [Compound 173, (E)-6-(6-(ethoxy-2,2,2-d3)pyridine-3-yl)-N'-((2-fluoro-5-(methoxy-d3)pyridine-3-yl)methylene)pyrazine-2-carbohydrazide] |
| > 1000 | > 1000 | COc1ccc(F)c(/C=N/NC(=O)c2cncc(-c3ccc(OCC(C)N)nc3)n2)c1 (stereo not drawn) [Compound 136, (E)-6-(6-(2-aminopropoxy)pyridine-3-yl)-N'-(2-fluoro-5-methoxybenzylidene) pyrazine-2-carbohydrazide] |
| < 500 | < 500 | CCOc1ccc(-c2cncc(C(=O)N/N=C/c3cc(OC)cnc3F)n2)c(OC)n1 [Compound 154, (E)-6-(6-ethoxy-2-methoxypyridine-3-yl)-N'-((2-fluoro-5-methoxypyridine-3-yl)methylene)pyrazine-2-carbohydrazide] |
| 500 to 1000 | > 1000 | O=C(N/N=C/c1cc(O)cnc1F)c1cncc(-c2ccc(OC(F)F)nc2)n1 [Compound 113, (E)-6-(6-(difluoromethoxy)pyridine-3-yl)-N'-((2-fluoro-5-hydroxypyridine-3-yl)methylene)pyrazine-2-carbohydrazide] |

More lines, now with the values behind:

| Structure (SMILES) | IC50 [1] [nM] | IC50 [2] [nM] |
| --- | --- | --- |
| CCOc1ccc(-c2cncc(C(=O)N/N=C/c3cc(OC)cnc3F)c2)cn1 [Compound 74, (E)-6'-ethoxy-N'-((2-fluoro-5-methoxypyridine-3-yl)methylene)-[3,3'-bipyridine]-5-carbohydrazide] | > 1000 | > 1000 |
| CC(O)c1ccnc(/C=N/NC(=O)c2cncc(-c3ccc(OC(F)F)nc3)n2)c1 (stereo not drawn) [Compound 114, (E)-6-(6-(difluoromethoxy)pyridine-3-yl)-N'-((4-(1-hydroxyethyl)pyridine-2-yl)methylene)pyrazine-2-carbohydrazide] | > 1000 | > 1000 |
| CC(C)Oc1ccc(F)c(/C=N/NC(=O)c2cncc(-c3ccc(OC(F)(F)F)nc3)n2)c1 [Compound 92, (E)-N'-(2-fluoro-5-isopropoxybenzylidene)-6-(6-(trifluoromethoxy)pyridine-3-yl)pyrazine-2-carbohydrazide] | < 500 | < 500 |
| CCOc1ccc(-c2cncc(C(=O)N/N=C/c3cc(N4CCC4)ccc3F)n2)cn1 [Compound 38, (E)-N'-(5-(azetidin-1-yl)-2-fluorobenzylidene)-6-(6-ethoxypyridine-3-yl)pyrazine-2-carbohydrazide] | < 500 | > 1000 |
| CCOc1ccc(-c2cncc(C(=O)N/N=C/c3cc(C(=O)O)ccc3F)n2)cn1 [Compound 10, (E)-3-(2-(6-(6-(6-ethoxypyridine-3-yl)pyrazine-2-carbonyl)hydrazinylidene)methyl)-4-fluorobenzoic acid] | > 1000 | > 1000 |
| CCOc1ccc(-c2cnc(O)c(C(=O)N/N=C/c3cccn3C)n2)cn1 [Compound 70, (E)-6-(6-ethoxypyridine-3-yl)-3-hydroxy-N'-((1-methyl-1H-pyrrole-2-yl)methylene)pyrazine-2-carbohydrazide] | > 1000 | > 1000 |
| CCOc1ccc(-c2cncc(C(=O)N/N=C/c3ocnc3C)n2)cn1 [Compound 61, (E)-6-(6-ethoxypyridine-3-yl)-N'-((4-methyloxazole-5-yl)methylene)pyrazine-2-carbohydrazide] | > 1000 | > 1000 |
| CCOc1ccc(-c2cncc(C(=O)N/N=C/c3ccnn3C(C)C)n2)cn1 [Compound 54, (E)-6-(6-ethoxypyridine-3-yl)-N'-((1-isopropyl-1H-pyrazole-5-yl)methylene)pyrazine-2-carbohydrazide] | < 500 | > 1000 |
| CCOc1ccc(-c2cncc(C(=O)N/N=C/c3cc(OC4CCC4)ccc3F)n2)cn1 [Compound 21, (E)-N'-(5-cyclobutoxy-2-fluorobenzylidene)-6-(6-ethoxypyridine-3-yl)pyrazine-2-carbohydrazide] | < 500 | 500 to 1000 |
| CCOc1ccc(-c2nc(C(=O)N/N=C/c3cc(OC)ccc3F)cnc2O)cn1 [Compound 66, (E)-6-(6-ethoxypyridine-3-yl)-N'-(2-fluoro-5-methoxybenzylidene)-5-hydroxypyrazine-2-carbohydrazide] | > 1000 | > 1000 |
| CCOc1ccc(-c2cncc(C(=O)N/N=C/c3cc(OC)cnc3C)n2)cn1 [Compound 27, (E)-6-(6-ethoxypyridine-3-yl)-N'-((5-methoxy-2-methylpyridine-3-yl)methylene)pyrazine-2-carbohydrazide] | < 500 | > 1000 |
| CCOc1ccc(-c2cncc(C(=O)N/N=C/c3cc(O)nc(OC)c3)n2)cn1 [Compound 43, (E)-6-(6-ethoxypyridine-3-yl)-N'-((2-hydroxy-6-methoxypyridine-4-yl)methylene) pyrazine-2-carbohydrazide] | > 1000 | > 1000 |
| CCOc1ccc(-c2cncc(C(=O)N/N=C/c3cc(CN)ccc3F)n2)cn1 [Compound 13, (E)-N'-(5-(aminomethyl)-2-fluorobenzylidene)-6-(6-ethoxypyridine-3-yl)pyrazine-2-carbohydrazide] | > 1000 | > 1000 |
| O=C(N/N=C/c1ccncc1)c1cncc(-c2ccc(OC(F)(F)F)nc2)n1 [Compound 87, (E)-N'-(pyridine-4-ylmethylene)-6-(6-(trifluoromethoxy)pyridine-3-yl)pyrazine-2-carbohydrazide] | > 1000 | > 1000 |
| CCOc1ccc(-c2cncc(C(=O)N/N=C/c3ccnn3C)n2)cn1 [Compound 51, (E)-6-(6-ethoxypyridine-3-yl)-N'-((1-methyl-1H-pyrazole-5-yl)methylene)pyrazine-2-carbohydrazide] | > 1000 | > 1000 |
| COc1cnc(C)c(/C=N/NC(=O)c2cncc(-c3ccc(OC(F)F)nc3)n2)c1 [Compound 103, (E)-6-(6-(difluoromethoxy)pyridine-3-yl)-N'-((5-methoxy-2-methylpyridine-3-yl)methylene)pyrazine-2-carbohydrazide] | < 500 | > 1000 |
| COc1ccc(C)c(/C=N/NC(=O)c2cncc(-c3ccc(OC(F)F)nc3)n2)c1 [Compound 102, (E)-6-(6-(difluoromethoxy)pyridine-3-yl)-N'-(5-methoxy-2-methylbenzylidene) pyrazine-2-carbohydrazide] | < 500 | > 1000 |
| CCOc1ccc(-c2nccc(C(=O)N/N=C/c3cc(OC)cnc3F)n2)cn1 [Compound 72, (E)-2-(6-ethoxypyridine-3-yl)-N'-((2-fluoro-5-methoxypyridine-3-yl)methylene) pyrimidine-4-carbohydrazide] | < 500 | > 1000 |
